Test results: patent publication US20190135793A1, “HETEROCYCLIC INHIBITORS OF KDM5 FOR THE TREATMENT OF DISEASE” (Board of Regents, The University of Texas System, priority 2017, published 2019)
Where two headings read alike, the source gives them in different places.

How the values were obtained:
[1] = target: T1, KDM5B (Homo sapiens, UniProt Q9UGL1); assay: biochemical
T1 construct: Full length of KDM5B and KDM4C protein were purchased from Active Motif; purchased Active Motif 31832
Summary of the method: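 KDM5B (0.5 nM final) was preincubated with compound for 15 min at room temperature, then reacted with biotinylated peptide (3 nM final) for 25 min at room temperature.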

[2] = target: T2, KDM4C (Homo sapiens, UniProt Q9H3R0); assay: KDM4C AlphaScreen assay; assay type: biochemical; conditions: AlphaScreen; full length KDM4C 0.2 nM; biotinylated H3K9Me3 peptide 3 nM; 30 minutes at room temperature
T2 construct: Full length of KDM5B and KDM4C protein were purchased from Active Motif; purchased Active Motif 31858
T2 sequence (Q9H3R0 1-1056): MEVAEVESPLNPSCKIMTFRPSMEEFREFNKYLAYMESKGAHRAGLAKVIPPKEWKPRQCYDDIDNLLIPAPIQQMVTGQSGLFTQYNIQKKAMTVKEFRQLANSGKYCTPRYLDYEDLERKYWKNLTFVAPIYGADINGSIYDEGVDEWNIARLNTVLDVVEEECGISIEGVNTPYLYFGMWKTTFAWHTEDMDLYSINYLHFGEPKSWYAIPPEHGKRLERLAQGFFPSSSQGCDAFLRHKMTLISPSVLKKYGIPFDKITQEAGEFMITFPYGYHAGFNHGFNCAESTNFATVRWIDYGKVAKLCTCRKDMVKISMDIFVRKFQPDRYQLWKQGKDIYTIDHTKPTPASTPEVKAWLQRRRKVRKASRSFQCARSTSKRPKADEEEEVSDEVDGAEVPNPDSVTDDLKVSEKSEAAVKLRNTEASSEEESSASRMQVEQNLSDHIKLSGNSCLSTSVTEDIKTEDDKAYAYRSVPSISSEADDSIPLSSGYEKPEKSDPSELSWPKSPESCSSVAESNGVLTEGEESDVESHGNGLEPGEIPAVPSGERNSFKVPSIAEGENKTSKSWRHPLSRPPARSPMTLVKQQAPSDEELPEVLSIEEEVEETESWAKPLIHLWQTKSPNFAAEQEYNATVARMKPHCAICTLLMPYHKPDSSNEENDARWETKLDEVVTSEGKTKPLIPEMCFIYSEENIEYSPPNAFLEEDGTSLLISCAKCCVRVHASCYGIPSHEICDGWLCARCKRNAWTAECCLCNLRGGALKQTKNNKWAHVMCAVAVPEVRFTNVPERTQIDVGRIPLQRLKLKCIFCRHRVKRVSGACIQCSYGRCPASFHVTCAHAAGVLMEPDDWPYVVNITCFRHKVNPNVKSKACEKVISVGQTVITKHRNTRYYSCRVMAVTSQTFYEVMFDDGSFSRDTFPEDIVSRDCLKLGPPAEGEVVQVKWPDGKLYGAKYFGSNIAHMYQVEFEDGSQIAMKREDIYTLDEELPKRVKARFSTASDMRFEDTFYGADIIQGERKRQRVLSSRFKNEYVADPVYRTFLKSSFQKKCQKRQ
Summary of the method: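 Full-length KDM4C (0.2 nM final) was preincubated 15 min at RT with compound in HEPES pH 7.4 with Tween-20, BSA and TCEP. The reaction ran 30 min at RT after adding biotinylated peptide (3 nM final) in buffer with Fe(II), α-ketoglutarate and ascorbate. EDTA-containing AlphaScreen beads stopped it; IC50 was curve-fitted.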

[3] = AlphaScreen, full length KDM5B 0.5 nM, biotinylated H3K4Me3 peptide 3 nM, 25 minutes at room temperature, read-out: KDM5B (IC50)

T1 sequence (Q9UGL1 whole entry): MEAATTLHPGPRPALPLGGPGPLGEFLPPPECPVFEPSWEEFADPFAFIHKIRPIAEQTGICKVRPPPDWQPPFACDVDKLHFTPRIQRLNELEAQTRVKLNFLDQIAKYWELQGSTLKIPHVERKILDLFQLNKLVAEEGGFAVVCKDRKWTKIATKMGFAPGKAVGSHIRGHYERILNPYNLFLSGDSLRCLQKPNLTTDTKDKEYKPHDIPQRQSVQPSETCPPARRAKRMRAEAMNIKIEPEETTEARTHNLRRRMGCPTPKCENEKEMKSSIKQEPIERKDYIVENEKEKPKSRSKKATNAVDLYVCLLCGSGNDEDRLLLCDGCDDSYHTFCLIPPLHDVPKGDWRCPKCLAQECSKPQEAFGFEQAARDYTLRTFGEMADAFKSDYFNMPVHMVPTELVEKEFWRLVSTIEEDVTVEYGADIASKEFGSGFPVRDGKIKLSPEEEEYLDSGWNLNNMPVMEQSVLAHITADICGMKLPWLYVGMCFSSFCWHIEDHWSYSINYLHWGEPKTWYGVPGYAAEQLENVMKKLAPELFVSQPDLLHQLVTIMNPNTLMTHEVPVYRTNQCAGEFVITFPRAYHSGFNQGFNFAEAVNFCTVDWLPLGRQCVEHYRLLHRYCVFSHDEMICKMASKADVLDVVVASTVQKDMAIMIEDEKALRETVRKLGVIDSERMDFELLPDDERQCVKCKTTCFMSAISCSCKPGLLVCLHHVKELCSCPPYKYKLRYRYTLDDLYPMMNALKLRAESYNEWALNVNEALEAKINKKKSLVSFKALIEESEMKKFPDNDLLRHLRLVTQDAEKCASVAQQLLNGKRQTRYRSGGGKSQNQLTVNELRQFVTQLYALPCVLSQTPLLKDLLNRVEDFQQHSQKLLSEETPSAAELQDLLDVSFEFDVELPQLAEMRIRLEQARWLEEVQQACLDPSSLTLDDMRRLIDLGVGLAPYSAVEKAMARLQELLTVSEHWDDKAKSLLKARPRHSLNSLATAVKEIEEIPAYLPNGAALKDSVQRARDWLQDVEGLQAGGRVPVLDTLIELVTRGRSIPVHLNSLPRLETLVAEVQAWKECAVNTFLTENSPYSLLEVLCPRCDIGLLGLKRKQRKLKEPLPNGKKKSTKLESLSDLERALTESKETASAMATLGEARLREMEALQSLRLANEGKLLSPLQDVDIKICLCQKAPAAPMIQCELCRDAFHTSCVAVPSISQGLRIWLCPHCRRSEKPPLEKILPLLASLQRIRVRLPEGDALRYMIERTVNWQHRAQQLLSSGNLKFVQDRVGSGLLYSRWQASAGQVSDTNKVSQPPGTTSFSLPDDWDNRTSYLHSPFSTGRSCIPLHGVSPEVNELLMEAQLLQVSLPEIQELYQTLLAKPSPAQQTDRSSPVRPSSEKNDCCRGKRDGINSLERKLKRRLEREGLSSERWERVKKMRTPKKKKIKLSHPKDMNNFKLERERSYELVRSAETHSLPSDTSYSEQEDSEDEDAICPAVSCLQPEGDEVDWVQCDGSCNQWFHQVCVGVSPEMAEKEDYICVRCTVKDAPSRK

Q: With `CC(C)c1c(O)nc(-n2ccnc2)nc1OCCN1CCCCC1` [Example 130, 2-(1H-Imidazol-1-yl)-6-[2-(piperidin-1-yl)ethoxy]-5-(propan-2-yl)pyrimidin-4-ol] as the molecule, how does the IC50 [1] read?
A: 27 nM

Q: What about the IC50 [2] of the same molecule?
A: 3670 nM

Q: With `CC(C)c1c(O)nc(-n2ccnc2)nc1OCc1ccccc1` [Example 134, 6-(Benzyloxy)-2-(1H-imidazol-1-yl)-5-(propan-2-yl)pyrimidin-4-ol] as the molecule, how does the IC50 [1] read?
A: 31 nM

Q: What about the IC50 [2] of the same molecule?
A: 1450 nM

Q: How did the IC50 [1] turn out when `CCn1cc(-c2nc(-n3ccnc3)nc(O)c2C(C)C)cn1` [Example 66, 6-(1-Ethyl-1H-pyrazol-4-yl)-2-(1H-imidazol-1-yl)-5-(propan-2-yl)pyrimidin-4-ol] was run?
A: 19 nM

Q: And the IC50 [2]?
A: 1180 nM

Q: With `CC(C)c1c(O)nc(-c2cncs2)nc1OCc1cccnc1` [Example 19, 5-(propan-2-yl)-6-(pyridin-3-ylmethoxy)-2-(1,3-thiazol-5-yl)pyrimidin-4-ol] as the molecule, how does the IC50 [1] read?
A: 91 nM

Q: And the IC50 [2]?
A: 1790 nM

Q: Which IC50 [1, 3] does the source give for `CC(=O)NCc1ccc(-c2nc(-n3ccnc3)nc(O)c2C(C)C)cc1` [Example 43, N-({4-[6-Hydroxy-2-(1H-imidazol-1-yl)-5-(propan-2-yl)pyrimidin-4-yl]phenyl}-methyl)acetamide] here?
A: 9 nM

Q: And the IC50 [2]?
A: 1110 nM

Q: How did the IC50 [1, 3] turn out when `CC(C)c1c(O)nc(-n2ccnc2)nc1-c1cnn(CC(=O)NCCN2CCCC2=O)c1` [Example 109, 2-{4-[6-Hydroxy-2-(1H-imidazol-1-yl)-5-(propan-2-yl)pyrimidin-4-yl]-1H-pyrazol-1-yl}-N-[2-(2-oxo-pyrrolidin-1-yl)ethyl]-acetamide] was run?
A: 20 nM

Q: What about the IC50 [2] of the same molecule?
A: 1540 nM

Q: What does the source list for `CNCCN(C)C(=O)Cn1cc(-c2nc(-n3ccnc3)nc(O)c2C(C)C)cn1` [Example 95, 2-{4-[6-Hydroxy-2-(1H-imidazol-1-yl)-5-(propan-2-yl)pyrimidin-4-yl]-1H-pyrazol-1-yl}-N-methyl-N-[2-(methylamino)ethyl]-acetamide]?
A: IC50 [1]: 6 nM; IC50 [2]: 278 nM

Q: How did the IC50 [1] turn out when `Cc1nc(-n2ccnc2C)nc(O)c1C(C)C` [Example 148, 6-Methyl-2-(2-methyl-1H-imidazol-1-yl)-5-(propan-2-yl)pyrimidin-4-ol] was run?
A: 480 nM

Q: And the IC50 [2]?
A: 9460 nM

Q: With `CC(C)c1c(O)nc(-c2cncs2)nc1OCc1ccncc1` [Example 144, 5-(Propan-2-yl)-6-(pyridin-4-ylmethoxy)-2-(1,3-thiazol-5-yl)pyrimidin-4-ol] as the molecule, how does the IC50 [1, 3] read?
A: 140 nM

Q: What about the IC50 [2] of the same molecule?
A: 2920 nM

Q: `CC(C)c1c(O)nc(-n2ccnc2)nc1-c1cnn(CC(=O)N2CCCC(C#N)C2)c1` (stereo not shown) [Example 103, 1-(2-{4-[6-Hydroxy-2-(1H-imidazol-1-yl)-5-(propan-2-yl)pyrimidin-4-yl]-1H-pyrazol-1-yl}acetyl)-piperidine-3-carbonitrile] was tested. Which IC50 [1] did it give?
A: 15 nM

Q: What about the IC50 [2] of the same molecule?
A: 909 nM

Q: For `CC(C)c1c(O)nc(-n2ccnc2-c2ccccn2)nc1-c1cccc(CNS(C)(=O)=O)c1` [Example 89, N-({3-[6-Hydroxy-5-(propan-2-yl)-2-[2-(pyridin-2-yl)-1H-imidazol-1-yl]pyrimidin-4-yl]phenyl}methyl)methane-sulfonamide], which IC50 [1, 3] is on record?
A: 266 nM

Q: And the IC50 [2]?
A: 20000 nM

Q: For `CC(C)c1c(O)nc(-c2cncs2)nc1OCC(C)(C)CO` [Example 147, 6-(3-Hydroxy-2,2-dimethylpropoxy)-5-(propan-2-yl)-2-(1,3-thiazol-5-yl)-pyrimidin-4-ol], which IC50 [1] is on record?
A: 1470 nM

Q: What about the IC50 [2] of the same molecule?
A: 12400 nM

Q: Which results are given for `CC(C)c1c(O)nc(-n2ccnc2)nc1OCc1ccncn1` [Example 136, 2-(1H-Imidazol-1-yl)-5-(propan-2-yl)-6-(pyrimidin-4-ylmethoxy)pyrimidin-4-ol]?
A: IC50 [1]: 55 nM; IC50 [2]: 2410 nM

Q: With `CC(C)c1c(O)nc(-n2ccnc2)nc1OCCN(C)C` [Example 137, 6-[2-(Dimethylamino)-ethoxy]-2-(1H-imidazol-1-yl)-5-(propan-2-yl)pyrimidin-4-ol] as the molecule, how does the IC50 [1, 3] read?
A: 58 nM

Q: What about the IC50 [2] of the same molecule?
A: 975 nM

Q: Which results are given for `Cc1nc(-c2nccs2)nc(O)c1C(C)C` [Example 158, 6-Methyl-5-(propan-2-yl)-2-(1,3-thiazol-2-yl)-pyrimidin-4-ol]?
A: IC50 [1, 3]: 2410 nM; IC50 [2]: 30000 nM

Q: Which results are given for `CC(C)c1c(O)nc(-n2ccnc2)nc1OCCC1CCN(CCCC(F)(F)F)CC1` [Example 13, 2-(1H-imidazol-1-yl)-5-(propan-2-yl)-6-{2-[1-(4,4,4-trifluorobutyl)piperidin-4-yl]ethoxy}pyrimidin-4-ol]?
A: IC50 [1]: 12 nM; IC50 [2]: 1140 nM

Q: How did the IC50 [1, 3] turn out when `CC(C)c1cnc(-c2cncs2)nc1O` [Example 157, 5-(Propan-2-yl)-2-(1,3-thiazol-5-yl)-pyrimidin-4-ol] was run?
A: 805 nM

Q: And the IC50 [2]?
A: 5820 nM

Q: How did the IC50 [1] turn out when `CC(C)c1c(O)nc(-n2ccnc2)nc1-c1cnn(CC(=O)NCCc2ccccn2)c1` [Example 105, 2-{4-[6-Hydroxy-2-(1H-imidazol-1-yl)-5-(propan-2-yl)pyrimidin-4-yl]-1H-pyrazol-1-yl}-N-[2-(pyridin-2-yl)ethyl]acetamide] was run?
A: 17 nM

Q: What about the IC50 [2] of the same molecule?
A: 1080 nM

Q: With `CNC(=O)c1ccc(-c2nc(-n3ccnc3)nc(O)c2C(C)C)cn1` [Example 120, 5-[6-Hydroxy-2-(1H-imidazol-1-yl)-5-(propan-2-yl)pyrimidin-4-yl]-N-methyl-pyridine-2-carboxamide] as the molecule, how does the IC50 [1, 3] read?
A: 18 nM

Q: What about the IC50 [2] of the same molecule?
A: 2190 nM

Q: How did the IC50 [1] turn out when `CC(C)c1c(O)nc(-n2ccnc2)nc1-c1cnn(CC(=O)NCC(N)=O)c1` [Example 114, N-(Carbamoylmethyl)-2-{4-[6-hydroxy-2-(1H-imidazol-1-yl)-5-(propan-2-yl)pyrimidin-4-yl]-1H-pyrazol-1-yl}-acetamide] was run?
A: 26 nM

Q: And the IC50 [2]?
A: 2030 nM

Q: For `CC(C)c1c(O)nc(-n2ccnc2)nc1-c1cnn(C2CCOCC2)c1` [Example 59, 2-(1H-Imidazol-1-yl)-6-[1-(oxan-4-yl)-1H-pyrazol-4-yl]-5-(propan-2-yl)pyrimidin-4-ol], which IC50 [1] is on record?
A: 16 nM

Q: And the IC50 [2]?
A: 746 nM

Q: How did the IC50 [1] turn out when `Cc1noc(C)c1-c1nc(-n2ccnc2)nc(O)c1C(C)C` [Example 84, 6-(Dimethyl-1,2-oxazol-4-yl)-2-(1H-imidazol-1-yl)-5-(propan-2-yl)pyrimidin-4-ol] was run?
A: 190 nM

Q: What about the IC50 [2] of the same molecule?
A: 10700 nM

Q: How did the IC50 [1] turn out when `CC(C)c1c(O)nc(-n2ccnc2)nc1-c1cnn(CC(=O)NCCN2CCC(F)(F)CC2)c1` [Example 96, N-[2-(4,4-Difluoropiperidin-1-yl)ethyl]-2-{4-[6-hydroxy-2-(1H-Imidazol-1-yl)-5-(propan-2-yl)pyrimidin-4-yl]-1H-pyrazol-1-yl}acetamide] was run?
A: 7 nM

Q: And the IC50 [2]?
A: 779 nM

Q: With `CC(C)c1c(O)nc(-n2ccnc2)nc1-c1ccc(S(C)(=O)=O)cc1` [Example 69, 2-(1H-Imidazol-1-yl)-6-(4-methanesulfonylphenyl)-5-(propan-2-yl)pyrimidin-4-ol] as the molecule, how does the IC50 [1] read?
A: 22 nM

Q: And the IC50 [2]?
A: 2060 nM

Q: With `CC(C)c1c(O)nc(-n2ccnc2)nc1-c1ccc(C(N)=O)nc1` [Example 9, 5-(6-hydroxy-2-(1H-imidazol-1-yl)-5-isopropylpyrimidin-4-yl)picolinamide] as the molecule, how does the IC50 [1, 3] read?
A: 13 nM

Q: What about the IC50 [2] of the same molecule?
A: 2390 nM

Q: Which results are given for `CC(C)c1c(O)nc(-n2ccnc2)nc1-c1cccc(CN)c1` [Example 41, 6-[3-(Aminomethyl)phenyl]-2-(1H-imidazol-1-yl)-5-(propan-2-yl)pyrimidin-4-ol]?
A: IC50 [1, 3]: 3 nM; IC50 [2]: 281 nM

Q: How did the IC50 [1] turn out when `CC(C)c1c(O)nc(-n2ccnc2)nc1-c1cnn(C2CCC2)c1` [Example 49, 6-(1-Cyclobutyl-1H-pyrazol-4-yl)-2-(1H 1H-imidazol-1-yl)-5-(propan-2-yl)pyrimidin-4-ol] was run?
A: 13 nM

Q: What about the IC50 [2] of the same molecule?
A: 716 nM

Q: For `CC(C)c1c(O)nc(-n2ccnc2)nc1-c1cnn(Cc2ccccc2)c1` [Example 63, 6-(1-Benzyl-1H-pyrazol-4-yl)-2-(1H-imidazol-1-yl)-5-(propan-2-yl)pyrimidin-4-ol], which IC50 [1] is on record?
A: 18 nM

Q: And the IC50 [2]?
A: 1540 nM

Q: Which IC50 [1] does the source give for `CC(C)c1c(O)nc(-c2cncs2)nc1-c1cnn(C(C)C)c1` [Example 152, 5-(Propan-2-yl)-6-[1-(propan-2-yl)-1H-pyrazol-4-yl]-2-(1,3-thiazol-5-yl)pyrimidin-4-ol] here?
A: 151 nM

Q: What about the IC50 [2] of the same molecule?
A: 7240 nM
